Results on 6 compounds are retold here after US3976771A, “Glycylglycine amide preparations and method of use antiarrhythmic” (priority 1972, dated 1976).

Entries after “also recorded” stand apart in the source; their conditions may differ.

Data set [1] has as its system ventricular arrhythmias produced by coronary artery ligation. The data set can be described thus: Ventricular arrhythmias produced by coronary artery ligation in unanesthetized dogs. In kind it is in vivo. The conditions noted are these: two dogs, constant i.v. infusion 0.5 mg/kg/min. Here is the method: The effects of intravenous infusion of GEA968 was also studies on two unanesthesized dogs with ventricular arrhythmias produced by coronary artery ligation, essentially following the procedure of A. S. Harris, Circulation, Vol. I, page 1318 (1950). The two dogs with well-developed arrhythmias received a constant infusion of 0.5 mg/kg/min. of GEA968.

Data set [2] has as its system ventricular fibrillation upon exposure to chloroform vapor. The data set can be described thus: Protection against chloroform-induced ventricular fibrillation in mice. The class given is in vivo. The source says: The method used in mice was essentially the same as described by Lawson (J. Pham. Exp. Therap. 160, 22 (1968). Male mice (NMRI, 17-25 g) were used. Unanesthetized, untreated mice show cardiac ventricular fibrillation upon exposure to chloroform vapor. The ventricular fibrillation is abolished if the animals are pretreated with appropriate doses of known antiarrhythmic agents before exposure to chloroform.
For determination of antiarrhythmic effect groups of 10 mice were pretreated by the oral route with varying sublethal doses of compound 10 to 300 min. respectively before being placed individually in a beaker containing chloroform. The mouse was removed from the beaker at the time of respiratory arrest and the thorax opened. Examination of ventricular fibrillation was made by means of ECG-recordings (lead II). The effect of the compound was expressed as the number of animals in per cent which were protected from fibrillation.

Data set [3] concerns contractility of the heart. Briefly: Qualitative observation of side effects in the animal tests. The conditions noted are these: preliminary indication. In kind it is in vivo. From the text:
However, it was qualitatively observed that the side effects of the compounds of the present invention appeared to be less significant.

Data set [4] relates to mice. The data set can be described thus: Acute oral toxicity in mice. The class given is in vivo. The conditions noted are these: deaths during 7 days. As for the experimental part:
For determination of acute toxicity groups of 10 mice were treated orally with varying doses of compound observing the incidence of death, during a 7 days period. LD50 and LD 0.1 were calculated by means of a logarithmic-probit graph paper.

Data set [5] relates to aconitine-induced arrhythmias. The data set can be described thus: Protection against aconitine-induced arrhythmias in the guinea-pig. The class given is in vivo. The following applies: for Dose of aconitine necessary for development of ECG-changes indicating Asystolie / Dose of aconitine necessary for development of ECG-changes indicating Fibrillation / Dose of aconitine necessary for development of ECG-changes indicating Tachycardia: 15 min before aconitine infusion, mean ± standard error. As for the experimental part:
The procedure used by Vargaftig et al. (Eur. J. Pharmacol. 6, 49, 1969) was slightly modified; Guinea-pigs of both sexes (250-400 g) were anaesthetized with uretane (1 g/kg bodyweight, i.p.). A plastic tube was introduced into the trachea and a thin plastic catheter into the jugular vein. Respiration was supported by means of a Harward Rodent Respirator 680. Aconitine was infused i.v. at a rate of 3 μg/min by means of a Palmer slow injection apparatus. The ECG (lead II) was continuously monitored. The amount of aconitine (μg/kg bodyweight) injected to induce ventricular tachycardia, fibrillation and asystolie was calculated. Test compounds were given i.p. with different time intervals between injection of drug and start of aconitine infusion.

For data set [6] the following is noted: due to low levels of the drug in the blood; cited from earlier work.
Where [7] appears, read: 100 mg/kg p.o., 10 min between pretreatment and chloroform vapor.
[8] abbreviates: 100 mg/kg p.o., 60 min between pretreatment and chloroform vapor.

For `CCN(CC)CC(=O)NCC(=O)Nc1c(C)cccc1C` [GEA 968, N,N-diethylglycylglycine-2,6-xylidide], the “Duration of suppression of arrhythmias” value in data set [1] is given as “unusually long duration”. In data set [1], the “Effect on ventricular arrhythmias” value is “suppression of the arrhythmias”. In addition, the “Percentage animals protected from fibrillation” value (shortened to “Percentage animals protected”) is on record as 45 per cent in data set [2] (54 mg/kg p.o. (one tenth of LD50), 10 min); 55 per cent in data set [2] (54 mg/kg p.o. (one tenth of LD50), 60 min); 15 per cent in data set [2] (54 mg/kg p.o. (one tenth of LD50), 300 min); 70 per cent in data set [2] (setting [7]); 65 per cent in data set [2] (setting [8]); 45 per cent in data set [2] (100 mg/kg p.o., 300 min between pretreatment and chloroform vapor). The “Percentage animals protected” value in data set [2] (250 mg/kg p.o., 10 min) amounted to 90 per cent; in data set [2] (250 mg/kg p.o., 60 min) it was 90 per cent; in data set [2] (250 mg/kg p.o., 300 min), 70 per cent. In addition, the “Antiarrhythmic effect in the chloroform test (in words)” value in data set [2] (mice, p.o.) is “good antiarrhythmic effects”. Further, in data set [2] (mouse, in vivo), the “Duration of antiarrhythmic effectiveness (in words)” value is “especially significant”. Also, in data set [3], the “Effect on contractility of the heart (qualitative)” value is recorded as “improving the contractility of the heart”. Moreover, the “LD 0.1 (the dose which kills 0.1 % of the animals)” value in data set [4] is 250 mg/kg bodyweight. In addition, the “Toxicity LD50 p.o.” value in data set [4] amounted to 535 mg/kg bodyweight. Also, the “Dose of aconitine necessary for development of ECG-changes indicating Asystolie” value (“Dose … of ECG-changes indicating Asystolie” for short) in data set [5] (25 mg/kg i.p.) worked out at 210 ± 12 μg/kg bodyweight; in data set [5] (50 mg/kg i.p.), 378 ± 33 μg/kg bodyweight; in data set [5] (100 mg/kg i.p.) it was 632 ± 132 μg/kg bodyweight. For the same compound, the figures for the “Dose of aconitine necessary for development of ECG-changes indicating Fibrillation” value (“Dose … of ECG-changes indicating Fibrillation” for short) in data set [5] (25 mg/kg i.p.), in data set [5] (50 mg/kg i.p.) and in data set [5] (100 mg/kg i.p.) were 155 ± 10 μg/kg bodyweight, 284 ± 25 μg/kg bodyweight and 356 ± 32 μg/kg bodyweight, respectively. The “Dose of aconitine necessary for development of ECG-changes indicating Tachycardia” value (“Dose … of ECG-changes indicating Tachycardia” below) in data set [5] (25 mg/kg i.p.) is given as 91 ± 6 μg/kg bodyweight; in data set [5] (50 mg/kg i.p.) it was 161 ± 15 μg/kg bodyweight; in data set [5] (100 mg/kg i.p.) it was 225 ± 35 μg/kg bodyweight. In addition, the “Antiarrhythmic effect in the aconitine test (in words)” value in data set [5] (guinea-pig, i.p.) was “markedly potent; also recorded: good antiarrhythmic effects”.

Take `CCN(CC)CC(=O)NCC(=O)NC(C)(C)c1ccccc1` [GEA 980, N^3,N^3 -diethyl-N^1 -(α,α-dimethylbenzyl) glycylglycine amide]: the “Percentage animals protected” value in data set [2] (setting [7]) worked out at 11 per cent; in data set [2] (setting [8]), 10 per cent; in data set [2] (300 mg/kg p.o., 10 min), 25 per cent; in data set [2] (300 mg/kg p.o., 60 min) it was 10 per cent; in data set [2] (500 mg/kg p.o., 10 min), 65 per cent; in data set [2] (500 mg/kg p.o., 60 min), 0 per cent. In addition, the “Toxicity LD50 p.o.” value in data set [4] was more than 500 mg/kg bodyweight.

As for `CCN(CC)CC(=O)N[C@@H](C)C(=O)NC(C)(C)c1ccccc1` [GEA 981, N^3,N^3 -diethyl-N^1 -(α,α-dimethylbenzyl)glycylalanineamide], the “Percentage animals protected” value in data set [2] (88 mg/kg p.o. (one tenth of LD50), 10 min) is 35 per cent; in data set [2] (88 mg/kg p.o. (one tenth of LD50), 60 min), 10 per cent; in data set [2] (610 mg/kg p.o. (LD 0.1), 10 min) it was 90 per cent; in data set [2] (610 mg/kg p.o. (LD 0.1), 60 min), 45 per cent. Moreover, the “LD 0.1 (the dose which kills 0.1 % of the animals)” value in data set [4] was found to be 610 mg/kg bodyweight. The “Toxicity LD50 p.o.” value in data set [4] is recorded as 880 mg/kg bodyweight.

As for `CCN(CC)[C@@H](C)C(=O)N[C@@H](C)C(=O)NC(C)(C)c1ccccc1` [GEA 982, N^3,N^3 -diethyl-N^1 -(α,α-dimethylbenzyl)alanylalanineamide], the “Percentage animals protected” value in data set [2] (66 mg/kg p.o. (one tenth of LD50), 10 min) is listed as 0 per cent; in data set [2] (66 mg/kg p.o. (one tenth of LD50), 60 min), 0 per cent; in data set [2] (210 mg/kg p.o. (LD 0.1), 10 min), 40 per cent; in data set [2] (210 mg/kg p.o. (LD 0.1), 60 min) it was 15 per cent. In data set [4], the “LD 0.1 (the dose which kills 0.1 % of the animals)” value is listed as 210 mg/kg bodyweight. Also, the “Toxicity LD50 p.o.” value in data set [4] is reported as 660 mg/kg bodyweight.

For the compound `CCN(CC)CC(=O)NCC(=O)Nc1ccccc1` [GEA 984, N,N-diethylglycylglycine anilide], the “Percentage animals protected” value is recorded as 0 per cent in data set [2] (250 mg/kg p.o., 10 min); 0 per cent in data set [2] (250 mg/kg p.o., 60 min); 70 per cent in data set [2] (500 mg/kg p.o., 10 min); 10 per cent in data set [2] (500 mg/kg p.o., 60 min); 75 per cent in data set [2] (1000 mg/kg p.o., 10 min); 0 per cent in data set [2] (1000 mg/kg p.o., 60 min). Moreover, the “Toxicity LD50 p.o.” value in data set [4] is given as more than 1000 mg/kg bodyweight. Further, the “Dose … of ECG-changes indicating Asystolie” value in data set [5] (100 mg/kg i.p.) is 284 ± 29 μg/kg bodyweight. For the same compound, in data set [5] (100 mg/kg i.p.), the “Dose … of ECG-changes indicating Fibrillation” value worked out at 211 ± 18 μg/kg bodyweight. For the same compound, in data set [5] (100 mg/kg i.p.), the “Dose … of ECG-changes indicating Tachycardia” value amounted to 95 ± 9 μg/kg bodyweight.

As to `CCN(CC)CC(=O)Nc1c(C)cccc1C` [Lidocaine, 2-diethylamino-2', 6'-acetoxylidide, reference compound], in data set [4], the “LD 0.1 (the dose which kills 0.1 % of the animals)” value is given as 150 mg/kg bodyweight. Besides, in data set [5] (25 mg/kg i.p.), the “Dose … of ECG-changes indicating Asystolie” value came to 237 ± 35 μg/kg bodyweight, the “Dose … of ECG-changes indicating Fibrillation” value was found to be 176 ± 12 μg/kg bodyweight and the “Dose … of ECG-changes indicating Tachycardia” value was determined as 66 ± 7 μg/kg bodyweight. For the same compound, the Oral antiarrhythmic effectiveness entry in data set [6] was “not orally effective”.
